The text below walks through data of ChEMBL document CHEMBL6092188, “Structure-Guided Conformational Restriction Leading to High-Affinity, Selective, and Cell-Active Tetrahydroisoquinoline-Based Noncovalent Keap1-Nrf2 Inhibitors” (J Med Chem, 2024).

Series [1] is described as follows: Solubility of the compound in PBS buffer and 0.5% DMSO at 200 uM by LC-MS analysis. Format: physicochemical.
Series [2] can be described thus: Metabolic stability in male CD-1 mouse liver microsomes assessed as parent compound remaining measured after 30 mins in presence of NADPH regenerating system by LC-MS analysis. Format: ADME, Microsome. To be noted: read-out: Stability.
Series [3] in a line: in vitro. To be noted: male, CD-1, mouse, liver microsomes.
Series [4] is described as follows: Metabolic stability in human liver microsomes assessed as parent compound remaining measured after 30 mins in presence of NADPH regenerating system by LC-MS analysis. The class given is ADME, Microsome. To be noted: read-out: Stability.
The nature of series [5]: Metabolic stability in human liver microsomes assessed as half life measured after 1 hr in presence of NADPH regenerating system by LC-MS analysis. The class given is ADME, Microsome.
The nature of series [6]: Metabolic stability in male Sprague-Dawley rat liver microsomes assessed as parent compound remaining measured after 30 mins in presence of NADPH regenerating system by LC-MS analysis. The class given is ADME, Microsome. To be noted: read-out: Stability.
A short description of series [7]: Permeability of the compound in PBS buffer at pH 7.4 at 200 uM measured after 5 hrs by PAMPA assay. Format: ADME. To be noted: for Papp at 5 h, 200 µM: PAMPA, pH 7.4, read-out: permeability.
A short description of series [8]: in vitro. To be noted: male, Sprague-Dawley, rat, liver microsomes.

Take `COc1cccc(S(=O)(=O)NCc2cccc(C(NC(=O)c3cccc4c3-c3ccccc3C4=O)C(=O)O)c2)c1` (centres undefined): the solubility entry in series [1] was “soluble”.

In the case of `COc1ccc(S(=O)(=O)NCc2cccc(C(NC(=O)c3cccc4c3-c3ccccc3C4=O)C(=O)O)c2)cc1` (centres undefined), the remaining at 0.5 h in series [2] was below 3%. Moreover, the half-life at 1 h in “in vitro [3]” is 3.6 min.

In the case of `CN(C)c1cccc(S(=O)(=O)NCc2cccc([C@@H](NC(=O)c3cccc4c3-c3ccccc3C4=O)C(=O)O)c2)c1`, the solubility result in series [1] was “soluble”.

Regarding `CCOc1ccc(S(=O)(=O)N2CCc3ccc(C(NC(=O)c4cccc5c4-c4cccnc4C5=O)C(=O)O)cc3C2)cc1C#N` (centres undefined), the remaining at 0.5 h in series [2] came out at 39%. In the series “in vitro [3]”, this compound gave a half-life at 1 h of 25 min.

Turning to `Cn1c2ccccc2c2c(C(=O)NC(C(=O)O)c3ccc4c(c3)CN(S(=O)(=O)c3cccc(Br)c3)CC4)cccc21` (centres undefined), the remaining at 0.5 h in series [2] is below 3%. In “in vitro [3]”, the half-life at 1 h stood at 5.4 min.

For `Cn1c2ccccc2c2c(C(=O)NC(C(=O)O)c3ccc4c(c3)CN(S(=O)(=O)c3cccc(C#N)c3)CC4)cccc21` (centres undefined), the remaining at 0.5 h in series [2] amounted to 22%; in series [4] it was 89%; in series [6] it was 92%. Moreover, in series [5], the half-life came to 200 min. The Papp at 5 h, 200 µM in series [7] was 2.2 ×10⁻⁶ cm/s. The half-life at 1 h in “in vitro [3]” is 15 min; in the series “in vitro [8]”, 400 min.

Consider `CCOc1ccc(S(=O)(=O)N2CCc3ccc(C(NC(=O)c4cccc5c4c4ccccc4n5C)C(=O)O)cc3C2)cc1C#N` (centres undefined), for which the remaining at 0.5 h in series [2] was determined as 8%; in series [4] it was 66%; in series [6], 86%. Besides, in series [5], the half-life is 47 min. The Papp at 5 h, 200 µM in series [7] turned out to be 4.7 ×10⁻⁶ cm/s. Also, the half-life at 1 h in “in vitro [3]” was determined as 8 min; in “in vitro [8]”, 280 min.

For the compound `N#Cc1cc(S(=O)(=O)N2CCc3ccc(C(NC(=O)c4cccc5c4-c4ccccc4C5=O)C(=O)O)cc3C2)ccc1F` (centres undefined), the remaining at 0.5 h in series [2] was below 3%; in series [4], below 3%; in series [6], 77%. Further, in series [5], the half-life stood at 4.5 min. Further, the values for the half-life at 1 h in “in vitro [3]” and in the series “in vitro [8]” were 3.2 min and 78 min, respectively.

As to `O=C(NC(C(=O)O)c1ccc2c(c1)CN(S(=O)(=O)c1cccc(Br)c1)CC2)c1cccc2c1-c1ccccc1C2=O` (centres undefined), the remaining at 0.5 h in series [2] was 0%. This compound yielded a half-life at 1 h in the series “in vitro [3]” of 3.3 min.

Consider `Cn1c2ccccc2c2c(C(=O)NC(C(=O)O)c3ccc4c(c3)CN(S(=O)(=O)c3ccc(F)c(C#N)c3)CC4)cccc21` (centres undefined), for which the values for the remaining at 0.5 h in series [2], in series [4] and in series [6] were 16%, 64% and 86%, respectively. Further, in series [5], the half-life is 51 min. Also, the Papp at 5 h, 200 µM in series [7] came to 4.7 ×10⁻⁶ cm/s. Further, the half-life at 1 h in “in vitro [3]” came out at 13 min; in the series “in vitro [8]”, 240 min.

With `COc1ccc(S(=O)(=O)N2CCc3ccc(C(NC(=O)c4cccc5c4-c4ccccc4C5=O)C(=O)O)cc3C2)cc1` (centres undefined), in series [2], the remaining at 0.5 h is below 3%. The solubility result in series [1] is on record as “soluble”. In addition, the permeability entry in series [7] (pampa, pH 7.4, 5 h, 200 µM) was “Permeable”. For the same compound, the half-life at 1 h in the series “in vitro [3]” stood at 3.8 min.

For the compound `CCOc1ccc(S(=O)(=O)N2CCc3ccc(C(NC(=O)c4cccc5c4-c4ccccc4C5F)C(=O)O)cc3C2)cc1C#N` (centres undefined), in series [2], the remaining at 0.5 h turned out to be 19%. For the same compound, in “in vitro [3]”, the half-life at 1 h came to 12 min.

Regarding `CCOc1ccc(S(=O)(=O)N2CCc3ccc(C(NC(=O)c4cccc5c4-c4ccccc4C5=O)C(=O)O)cc3C2)cc1C#N` (centres undefined), the results for the remaining at 0.5 h in series [2], in series [4] and in series [6] were 3%, below 3% and 78%, respectively. Also, the half-life in series [5] was determined as 5.1 min. The half-life at 1 h in the series “in vitro [3]” amounted to 3.8 min; in “in vitro [8]”, 99 min.

As to `N#Cc1cccc(S(=O)(=O)N2CCc3ccc(C(NC(=O)c4cccc5c4-c4ccccc4C5=O)C(=O)O)cc3C2)c1` (centres undefined), the remaining at 0.5 h in series [2] was 7.5%; in series [4], below 3%; in series [6], 83%. Also, the half-life in series [5] worked out at 6.1 min. For the same compound, the half-life at 1 h in “in vitro [3]” worked out at 6.1 min; in “in vitro [8]”, 130 min.

With `COc1ccc(S(=O)(=O)N2CCc3ccc(C(NC(=O)c4cccc5c4-c4ccccc4C5=O)C(=O)O)cc3C2)cc1C#N` (centres undefined), in series [2], the remaining at 0.5 h is 3.5%. Moreover, the half-life at 1 h in the series “in vitro [3]” turned out to be 4.5 min.

For the compound `CCOc1ccc(S(=O)(=O)N2CCc3ccc(C(NC(=O)c4cccc5c4-c4ccccc4C5)C(=O)O)cc3C2)cc1C#N` (centres undefined), the remaining at 0.5 h in series [2] was below 3%. This compound also returned a half-life at 1 h in “in vitro [3]” of 4.7 min.
